Reference: US6737383B1, “Herbicidal oxadiazolidines” (priority 1999, dated 2004)

Tests used:
smallflower flatsedge = assay: Test B flood test smallflower flatsedge; format: in vivo, Cyperus difformis
How it was run: (§1)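 Flood test on plants grown to the 2-leaf stage; treated plants kept in greenhouse twelve to sixteen days, then visually rated against controls on a 0 (no effect) to 10 (complete control) scale.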

cocklebur = assay: Test B pre/postemergence cocklebur; format: in vivo, Xanthium strumarium; settings: for Plant response rating, Cocklebur: Rate 250 g/ha
How it was run: (§2)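 Test chemicals in a non-phytotoxic solvent mixture with surfactant were sprayed preemergence onto planted seeds and postemergence onto plants 2 to 18 cm tall (1- to 4-leaf stage). After twelve to sixteen days in a greenhouse, injury was visually rated against untreated controls from 0 (no effect) to 10 (complete control).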

bedstraw = assay: Test B pre/postemergence bedstraw; format: in vivo, Galium aparine
How it was run: as §2

duck salad = assay: Test B flood test duck salad; format: in vivo, Heteranthera limosa
How it was run: as §1

velvetleaf = assay: Test B pre/postemergence velvetleaf; format: in vivo, Abutilon theophrasti; settings: for Plant response rating, Velvetleaf: Rate 250 g/ha
How it was run: as §2

sugar beet = assay: Test B pre/postemergence sugar beet; format: in vivo, Beta vulgaris; settings: for Plant response rating, Sugarbeets: Rate 250 g/ha
How it was run: as §2

soybean = assay: Test B pre/postemergence soybean; format: in vivo, Glycine max; settings: for Plant response rating, Soybean: Rate 250 g/ha
How it was run: as §2

corn = assay: Test B pre/postemergence corn; format: in vivo, Zea mays; settings: for Plant response rating, Corn: Rate 250 g/ha
How it was run: as §2

wild oat = assay: Test B pre/postemergence wild oat; format: in vivo, Avena fatua; settings: for Plant response rating, Wild oats: Rate 250 g/ha
How it was run: as §2

pigweed = assay: Test B pre/postemergence pigweed; format: in vivo, Amaranthus retroflexus; settings: for Plant response rating, Redroot pigweed: Rate 250 g/ha
How it was run: as §2

purple nutsedge = assay: Test B pre/postemergence purple nutsedge; format: in vivo, Cyperus rotundus; settings: for Plant response rating, Nutsedge: Rate 250 g/ha
How it was run: as §2

surinam grass = assay: Test B pre/postemergence surinam grass; format: in vivo, Brachiaria decumbens; settings: for Plant response rating, B. signalgrass: Rate 250 g/ha
How it was run: as §2

rape = assay: Test B pre/postemergence rape; format: in vivo, Brassica napus; settings: for Plant response rating, Rape: Rate 250 g/ha
How it was run: as §2

wheat = assay: Test B pre/postemergence wheat; format: in vivo, Triticum aestivum; settings: for Plant response rating, Wheat: Rate 250 g/ha
How it was run: as §2

giant foxtail = assay: Test B pre/postemergence giant foxtail; format: in vivo, Setaria faberii; settings: for Plant response rating, Giant foxtail: Rate 250 g/ha
How it was run: as §2

rice = assay: Test B flood test rice; format: in vivo, Oryza sativa
How it was run: as §1

[1] = Postemergence (flood test species), Rate 125 g/ha, scale of 0 to 10 where 0 is no effect and 10 is complete control
[2] = Rate 62 g/ha, Postemergence section, flood test species, scale of 0 to 10 where 0 is no effect and 10 is complete control
[3] = Rate 250 g/ha, Postemergence (flood test), scale 0 to 10, 0 is no effect, 10 is complete control
[4] = Rate 250 g/ha, headed Pre-emergence (flood test species), scale 0 to 10 (0 no effect, 10 complete control)
[5] = Rate 500 g/ha, headed Pre-emergence (flood test species), scale 0 to 10 (0 no effect, 10 complete control)
[6] = Rate 500 g/ha, listed under Postemergence (flood test species), scale 0 to 10, 0 no effect, 10 complete control
[7] = Rate 2000 g/ha, Pre-emergence (as headed), scale 0 to 10
[8] = Postemergence, Rate 125 g/ha, scale of 0 to 10 where 0 is no effect and 10 is complete control
[9] = Preemergence, Rate 62 g/ha, scale 0 to 10 (0 no effect, 10 complete control)
[10] = Preemergence, scale of 0 to 10 where 0 is no effect and 10 is complete control
[11] = Rate 62 g/ha, Postemergence, scale of 0 to 10 where 0 is no effect and 10 is complete control
[12] = Postemergence, scale 0 to 10, 0 is no effect, 10 is complete control
[13] = Rate 500 g/ha, Postemergence, scale 0 to 10, 0 no effect, 10 complete control
[14] = Preemergence, Rate 125 g/ha, 0 is no effect, 10 is complete control
[15] = Preemergence, Rate 500 g/ha, scale 0 to 10 (0 no effect, 10 complete control)
[16] = Rate 1000 g/ha, Pre-emergence (as headed), scale 0 to 10

CC(C)N(C(=O)n1oc(=O)n(-c2cnn(C)c2Cl)c1=O)c1ccccc1 [Compound 122]
S. Flatsedge plant response rating (smallflower flatsedge; [1]): 0 | S. Flatsedge plant response rating (smallflower flatsedge; Pre-emergence, Rate 1000 g/ha, scale 0 to 10 (0 no effect, 10 complete control)): 0 | S. Flatsedge plant response rating (smallflower flatsedge; [2]): 0 | Plant response rating, S. Flatsedge (smallflower flatsedge; [3]): 0 | S. Flatsedge plant response rating (smallflower flatsedge; [4]): 0 | Plant response rating, S. Flatsedge (smallflower flatsedge; [5]): 0 | S. Flatsedge plant response rating (smallflower flatsedge; [6]): 0 | S. Flatsedge plant response rating (smallflower flatsedge; [7]): 0 | Cocklebur plant response rating (cocklebur; [8]): 2 | Cocklebur plant response rating (cocklebur; [9]): 0 | Plant response rating, Cocklebur (cocklebur; [10]): 0 | Cocklebur plant response rating (cocklebur; [11]): 0 | Plant response rating, Cocklebur (cocklebur; [12]): 3 | Cocklebur plant response rating (cocklebur; [13]): 3 | Bedstraw plant response rating (bedstraw; [9]): 0 | Bedstraw plant response rating (0 to 10 scale) (bedstraw; [14]): 0 | Plant response rating, Bedstraw (bedstraw; Preemergence, Rate 250 g/ha, scale of 0 to 10 where 0 is no effect and 10 is complete control): 0 | Bedstraw plant response rating (bedstraw; [15]): 0 | Bedstraw plant response rating (bedstraw; [13]): 3 | Ducksalad plant response rating (duck salad; [1]): 0 | Ducksalad plant response rating (duck salad; [2]): 0 | Plant response rating, Ducksalad (duck salad; [3]): 0 | Ducksalad plant response rating (duck salad; [4]): 0 | Plant response rating, Ducksalad (duck salad; [5]): 0 | Ducksalad plant response rating (duck salad; [6]): 0 | Ducksalad plant response rating (duck salad; [16]): 0 | Ducksalad plant response rating (duck salad; [7]): 0 | Velvetleaf plant response rating (velvetleaf; [8]): 0 | Velvetleaf plant response rating (velvetleaf; [9]): 0 | Velvetleaf plant response rating (0 to 10 scale) (velvetleaf; [14]): 0 | Plant response rating, Velvetleaf (velvetleaf; [10]): 0 | Velvetleaf plant response rating (velvetleaf; [15]): 3 | Velvetleaf plant response rating (velvetleaf; [11]): 0 | Plant response rating, Velvetleaf (velvetleaf; [12]): 3 | Velvetleaf plant response rating (velvetleaf; [13]): 3 | Sugarbeets plant response rating (sugar beet; [8]): 0 | Sugarbeets plant response rating (sugar beet; [9]): 0 | Sugarbeets plant response rating (0 to 10 scale) (sugar beet; [14]): 0 | Plant response rating, Sugarbeets (sugar beet; [10]): 0 | Sugarbeets plant response rating (sugar beet; [15]): 4 | Sugarbeets plant response rating (sugar beet; [11]): 0 | Plant response rating, Sugarbeets (sugar beet; [12]): 0 | Sugarbeets plant response rating (sugar beet; [13]): 2 | Soybean plant response rating (soybean; [8]): 3 | Soybean plant response rating (soybean; [9]): 0 | Soybean plant response rating (0 to 10 scale) (soybean; [14]): 0 | Plant response rating, Soybean (soybean; [10]): 0 | Soybean plant response rating (soybean; [15]): 0 | Soybean plant response rating (soybean; [11]): 3 | Plant response rating, Soybean (soybean; [12]): 3 | Soybean plant response rating (soybean; [13]): 5 | Corn plant response rating (corn; [8]): 0 | Corn plant response rating (corn; [9]): 0 | Corn plant response rating (0 to 10 scale) (corn; [14]): 0 | Plant response rating, Corn (corn; [10]): 0 | Corn plant response rating (corn; [15]): 0 | Corn plant response rating (corn; [11]): 0 | Plant response rating, Corn (corn; [12]): 0 | Corn plant response rating (corn; [13]): 0 | Wild oats plant response rating (wild oat; [8]): 0 | Wild oats plant response rating (wild oat; [9]): 0 | Wild oats plant response rating (0 to 10 scale) (wild oat; [14]): 0 | Plant response rating, Wild oats (wild oat; [10]): 3 | Wild oats plant response rating (wild oat; [15]): 5 | Wild oats plant response rating (wild oat; [11]): 0 | Plant response rating, Wild oats (wild oat; [12]): 0 | Wild oats plant response rating (wild oat; [13]): 0 | Redroot pigweed plant response rating (pigweed; [8]): 1 | Redroot pigweed plant response rating (pigweed; [9]): 0 | Redroot pigweed plant response rating (0 to 10 scale) (pigweed; [14]): 5 | Plant response rating, Redroot pigweed (pigweed; [10]): 8 | Redroot pigweed plant response rating (pigweed; [15]): 8 | Redroot pigweed plant response rating (pigweed; [11]): 0 | Plant response rating, Redroot pigweed (pigweed; [12]): 2 | Redroot pigweed plant response rating (pigweed; [13]): 5 | Nutsedge plant response rating (purple nutsedge; [8]): 0 | Nutsedge plant response rating (purple nutsedge; [9]): 0 | Nutsedge plant response rating (0 to 10 scale) (purple nutsedge; [14]): 0 | Plant response rating, Nutsedge (purple nutsedge; [10]): 0 | Nutsedge plant response rating (purple nutsedge; [15]): 0 | Nutsedge plant response rating (purple nutsedge; [11]): 0 | Plant response rating, Nutsedge (purple nutsedge; [12]): 0 | Nutsedge plant response rating (purple nutsedge; [13]): 0 | B. signalgrass plant response rating (surinam grass; Postemergence, Rate 62 g/ha, scale 0 to 10, 0 is no effect, 10 is complete control): 0 | B. signalgrass plant response rating (surinam grass; [8]): 0 | B. signalgrass plant response rating (surinam grass; [9]): 0 | B. signalgrass plant response rating (0 to 10 scale) (surinam grass; [14]): 0 | Plant response rating, B. signalgrass (surinam grass; [10]): 0 | B. signalgrass plant response rating (surinam grass; [15]): 5 | Plant response rating, B. signalgrass (surinam grass; [12]): 0 | B. signalgrass plant response rating (surinam grass; Rate 500 g/ha, Postemergence, scale of 0 to 10 where 0 is no effect and 10 is complete control): 0 | Rape plant response rating (rape; [8]): 0 | Rape plant response rating (rape; [9]): 0 | Rape plant response rating (0 to 10 scale) (rape; [14]): 0 | Plant response rating, Rape (rape; [10]): 0 | Rape plant response rating (rape; [15]): 3 | Rape plant response rating (rape; [11]): 0 | Plant response rating, Rape (rape; [12]): 3 | Rape plant response rating (rape; [13]): 4 | Wheat plant response rating (wheat; [8]): 0 | Wheat plant response rating (wheat; [9]): 0 | Wheat plant response rating (0 to 10 scale) (wheat; [14]): 0 | Plant response rating, Wheat (wheat; [10]): 0 | Wheat plant response rating (wheat; [15]): 0 | Wheat plant response rating (wheat; [11]): 0 | Plant response rating, Wheat (wheat; [12]): 0 | Wheat plant response rating (wheat; [13]): 0 | Giant foxtail plant response rating (giant foxtail; [8]): 2 | Giant foxtail plant response rating (giant foxtail; [9]): 7 | Giant foxtail plant response rating (0 to 10 scale) (giant foxtail; [14]): 9 | Plant response rating, Giant foxtail (giant foxtail; [10]): 9 | Giant foxtail plant response rating (giant foxtail; [15]): 9 | Giant foxtail plant response rating (giant foxtail; [11]): 2 | Plant response rating, Giant foxtail (giant foxtail; [12]): 6 | Giant foxtail plant response rating (giant foxtail; [13]): 9 | Rice plant response rating (rice; [1]): 0 | Rice plant response rating (rice; [2]): 0 | Plant response rating, Rice (rice; [3]): 0 | Rice plant response rating (rice; [4]): 0 | Plant response rating, Rice (rice; [5]): 0 | Rice plant response rating (rice; [6]): 0 | Rice plant response rating (rice; [16]): 0 | Rice plant response rating (rice; [7]): 0
